Results taken from the supplement of paper PMC10307832.

Columns and labels:
Assay in all cases: relative viability (nuclei count vs DMSO), 5 days (fraction); higher = more cells survive
ABC-1 = system: ABC-1
Summary of the method: (§1)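 Values are medians from duplicate plates. Each reflects relative viability, defined as the nuclei count of treated wells over that of vehicle wells. Lung cancer cell lines in 1536-well plates were pin-tool dosed one day after seeding with one drug alone or with a fixed anchor-drug dose plus five library-drug doses (not always all listed) in √10 steps, then fixed, stained and imaged at 4× after 5 days.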

NCI-H838 = system: NCI-H838
Summary of the method: as §1

EMC-BAC-2 = system: EMC-BAC-2
Summary of the method: as §1

NCI-H2347 = system: NCI-H2347
Summary of the method: as §1

HOP-62 = system: HOP-62
Summary of the method: as §1

SW 900 = system: SW 900
Summary of the method: as §1

HCC-44 = system: HCC-44
Summary of the method: as §1

NCI-H3122 = system: NCI-H3122
Summary of the method: as §1

PC-14 = system: PC-14
Summary of the method: as §1

ChaGo-K-1 = system: ChaGo-K-1
Summary of the method: as §1

EKVX = system: EKVX
Summary of the method: as §1

NCI-H2228 = system: NCI-H2228
Summary of the method: as §1

SK-MES-1 = system: SK-MES-1
Summary of the method: as §1

201T = system: 201T
Summary of the method: as §1

RERF-LC-KJ = system: RERF-LC-KJ
Summary of the method: as §1

SW 1573 = system: SW 1573
Summary of the method: as §1

NCI-H1355 = system: NCI-H1355
Summary of the method: as §1

UMC-11 = system: UMC-11
Summary of the method: as §1

NCI-H2009 = system: NCI-H2009
Summary of the method: as §1

LK-2 = system: LK-2
Summary of the method: as §1

LC-2-ad = system: LC-2-ad
Summary of the method: as §1

`COCC1(CO)C(=O)C2CCN1CC2` (stereo unspecified) [PRIMA-1MET] + CCNC(=O)c1noc(-c2cc(C(C)C)c(O)cc2O)c1-c1ccc(CN2CCOCC2)cc1 [Luminespib] (partner 0.01 µM) was tested, and the relative viability (ABC-1; first compound 0.2 µM) was 0.534, the relative viability (ABC-1; first compound 0.6325 µM) was 0.375 and the relative viability (ABC-1; first compound 2 µM) was 0.393. The relative viability (ABC-1; first compound 6.325 µM) was 0.607, the relative viability (ABC-1; first compound 20 µM) was 0.171 and the relative viability (NCI-H838; first compound 0.2 µM) was 0.315. For the same compound, the relative viability (NCI-H838; first compound 0.6325 µM) was 0.194, the relative viability (NCI-H838; first compound 2 µM) was 0.298 and the relative viability (NCI-H838; first compound 6.325 µM) was 0.284. The relative viability (NCI-H838; first compound 20 µM) was 0.189, the relative viability (EMC-BAC-2; first compound 0.2 µM) was 1.37 and the relative viability (EMC-BAC-2; first compound 0.6325 µM) was 1.12. It also gave a relative viability (EMC-BAC-2; first compound 6.325 µM) of 1.23, a relative viability (EMC-BAC-2; first compound 20 µM) of 0.957 and a relative viability (NCI-H2347; first compound 0.2 µM) of 0.262. It also gave a relative viability (NCI-H2347; first compound 0.6325 µM) of 0.403, a relative viability (NCI-H2347; first compound 2 µM) of 0.174 and a relative viability (NCI-H2347; first compound 6.325 µM) of 0.386. For the same compound, the relative viability (NCI-H2347; first compound 20 µM) was 0.349, the relative viability (HOP-62; first compound 0.2 µM) was 0.989 and the relative viability (HOP-62; first compound 0.6325 µM) was 0.923. For the same compound, the relative viability (HOP-62; first compound 2 µM) was 0.923, the relative viability (HOP-62; first compound 6.325 µM) was 0.91 and the relative viability (HOP-62; first compound 20 µM) was 0.786. It also gave a relative viability (SW 900; first compound 0.2 µM) of 0.171, a relative viability (SW 900; first compound 0.6325 µM) of 0.176 and a relative viability (SW 900; first compound 2 µM) of 0.162. It also gave a relative viability (SW 900; first compound 6.325 µM) of 0.136, a relative viability (SW 900; first compound 20 µM) of 0.091 and a relative viability (HCC-44; first compound 0.2 µM) of 1.36. The relative viability (HCC-44; first compound 0.6325 µM) was 0.964, the relative viability (HCC-44; first compound 2 µM) was 0.817 and the relative viability (HCC-44; first compound 6.325 µM) was 1.14. It also gave a relative viability (HCC-44; first compound 20 µM) of 0.896, a relative viability (NCI-H3122; first compound 0.2 µM) of 0.0725 and a relative viability (NCI-H3122; first compound 0.6325 µM) of 0.0963. For the same compound, the relative viability (NCI-H3122; first compound 2 µM) was 0.0983, the relative viability (NCI-H3122; first compound 6.325 µM) was 0.0835 and the relative viability (NCI-H3122; first compound 20 µM) was 0.0732. The relative viability (PC-14; first compound 0.2 µM) was 0.137, the relative viability (PC-14; first compound 0.6325 µM) was 0.176 and the relative viability (PC-14; first compound 2 µM) was 0.169. It also gave a relative viability (PC-14; first compound 6.325 µM) of 0.182, a relative viability (PC-14; first compound 20 µM) of 0.129 and a relative viability (ChaGo-K-1; first compound 0.2 µM) of 0.694. It also gave a relative viability (ChaGo-K-1; first compound 0.6325 µM) of 0.531, a relative viability (ChaGo-K-1; first compound 2 µM) of 0.57 and a relative viability (ChaGo-K-1; first compound 6.325 µM) of 0.592. The relative viability (ChaGo-K-1; first compound 20 µM) was 0.346, the relative viability (EKVX; first compound 0.2 µM) was 1.03 and the relative viability (EKVX; first compound 0.6325 µM) was 0.808. It also gave a relative viability (EKVX; first compound 6.325 µM) of 0.805, a relative viability (EKVX; first compound 20 µM) of 0.729 and a relative viability (NCI-H2228; first compound 0.2 µM) of 0.212. The relative viability (NCI-H2228; first compound 0.6325 µM) was 0.139, the relative viability (NCI-H2228; first compound 2 µM) was 0.0997 and the relative viability (NCI-H2228; first compound 6.325 µM) was 0.192. For the same compound, the relative viability (NCI-H2228; first compound 20 µM) was 0.056, the relative viability (SK-MES-1; first compound 0.2 µM) was 1.04 and the relative viability (SK-MES-1; first compound 0.6325 µM) was 0.579. The relative viability (SK-MES-1; first compound 2 µM) was 0.885, the relative viability (SK-MES-1; first compound 6.325 µM) was 0.829 and the relative viability (SK-MES-1; first compound 20 µM) was 0.746. It also gave a relative viability (201T; first compound 0.2 µM) of 1.17, a relative viability (201T; first compound 0.6325 µM) of 0.937 and a relative viability (201T; first compound 2 µM) of 0.926. The relative viability (201T; first compound 6.325 µM) was 1.05, the relative viability (201T; first compound 20 µM) was 1.06 and the relative viability (RERF-LC-KJ; first compound 0.2 µM) was 1.42. The relative viability (RERF-LC-KJ; first compound 0.6325 µM) was 1.29, the relative viability (RERF-LC-KJ; first compound 2 µM) was 1.36 and the relative viability (RERF-LC-KJ; first compound 6.325 µM) was 1.37. The relative viability (RERF-LC-KJ; first compound 20 µM) was 1.03, the relative viability (SW 1573; first compound 0.2 µM) was 0.233 and the relative viability (SW 1573; first compound 2 µM) was 0.214. It also gave a relative viability (SW 1573; first compound 6.325 µM) of 0.0379, a relative viability (SW 1573; first compound 20 µM) of 0.0227 and a relative viability (NCI-H1355; first compound 0.2 µM) of 0.859. For the same compound, the relative viability (NCI-H1355; first compound 0.6325 µM) was 0.556, the relative viability (NCI-H1355; first compound 2 µM) was 0.695 and the relative viability (NCI-H1355; first compound 6.325 µM) was 0.734. The relative viability (NCI-H1355; first compound 20 µM) was 0.673, the relative viability (UMC-11; first compound 0.2 µM) was 1.06 and the relative viability (UMC-11; first compound 0.6325 µM) was 0.818. The relative viability (UMC-11; first compound 2 µM) was 0.978, the relative viability (UMC-11; first compound 6.325 µM) was 0.988 and the relative viability (UMC-11; first compound 20 µM) was 0.917. It also gave a relative viability (NCI-H2009; first compound 0.2 µM) of 0.981, a relative viability (NCI-H2009; first compound 0.6325 µM) of 0.97 and a relative viability (NCI-H2009; first compound 2 µM) of 1.1. For the same compound, the relative viability (NCI-H2009; first compound 6.325 µM) was 1.04, the relative viability (NCI-H2009; first compound 20 µM) was 0.307 and the relative viability (LK-2; first compound 0.2 µM) was 0.152. For the same compound, the relative viability (LK-2; first compound 0.6325 µM) was 0.188, the relative viability (LK-2; first compound 2 µM) was 0.158 and the relative viability (LK-2; first compound 6.325 µM) was 0.167. It also gave a relative viability (LK-2; first compound 20 µM) of 0.121, a relative viability (LC-2-ad; first compound 0.2 µM) of 1.26 and a relative viability (LC-2-ad; first compound 2 µM) of 0.902. The relative viability (LC-2-ad; first compound 6.325 µM) was 1.16 and the relative viability (LC-2-ad; first compound 20 µM) was 0.887.
